# Measurements taken from ChEMBL document CHEMBL3779778, “Structure-based design and development of (benz)imidazole pyridones as JAK1-selective kinase inhibitors” (Bioorg Med Chem Lett, 2016).
# What was measured:
# [1] = Intrinsic clearance in human liver microsomes; assay type: ADME; details: read-out: CLH
# [2] = Intrinsic clearance in human hepatocytes; assay type: ADME, cell-based, Hepatocyte; details: read-out: CLH
# [3] = Dissociation constant, pKa of the compound; assay type: physicochemical
SMILES,CLint scaled [1] [mL/min/kg],CLint scaled [2] [mL/min/kg],pKa [3]
N[C@H]1CC[C@@H](Nc2cc[nH]c(=O)c2-c2nc3ccccc3[nH]2)CC1,< 15,12,
O=c1[nH]ccc(N[C@H]2CC[C@@H](NCCF)CC2)c1-c1nc2ccccc2[nH]1,,,8.8
CCN[C@H]1CC[C@@H](Nc2cc[nH]c(=O)c2-c2nc3ccccc3[nH]2)CC1,,,10.5
COCCN[C@H]1CC[C@@H](Nc2cc[nH]c(=O)c2-c2nc3ccccc3[nH]2)CC1,,,9.2
O=c1[nH]ccc(N[C@H]2CC[C@@H](NCC(F)(F)F)CC2)c1-c1nc2ccccc2[nH]1,,,4.8
O=c1[nH]ccc(N[C@H]2CC[C@@H](NCC(F)F)CC2)c1-c1nc2ccccc2[nH]1,,,6.6
